This passage reports EC50 results from patent US11661431B2, “Thienopyrrole compounds” (Gilead Sciences, Inc., priority 2021, dated 2023).

One assay has as its target TLR8 (Homo sapiens (Human), UniProt Q9NR97). As to the kind of experiment: TLR8 human peripheral blood mononuclear cell (PBMC) cell-based assay (Compound A as agonist; TNFα and IL12p40 readout). The settings on record: TLR8 agonist Compound A at 800 nM, 6 hours, antagonist potency.
A further assay concerns the target TLR7 (Homo sapiens (Human), UniProt Q9NYK1). Put plainly: TLR7 human peripheral blood mononuclear cell (PBMC) cell-based assay (GS-986 as agonist; IL-6 and IFNα readout). Conditions: TLR7 agonist GS-986 at 400 nM, 6 hours, antagonist potency. The method, boiled down: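 IL-6 and IFNα released into supernatant were quantified by electrochemiluminescence immunoassay. Before that, human PBMCs at 100,000 per well received a 10-point antagonist titration for 1 h, then TLR7 agonist for 6 more hours, all at 37 °C, 5% CO2.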

[1] abbreviates: human PBMCs, read-out: TLR-8 EC50.
Setting [2] is: human PBMCs, read-out: TLR-7 EC50.

Like-named read-outs stand apart in the source and are kept apart here. A value given as a limit tells only on which side of the number the result lay.

Sequence of TLR8 (Q9NR97 27-1041): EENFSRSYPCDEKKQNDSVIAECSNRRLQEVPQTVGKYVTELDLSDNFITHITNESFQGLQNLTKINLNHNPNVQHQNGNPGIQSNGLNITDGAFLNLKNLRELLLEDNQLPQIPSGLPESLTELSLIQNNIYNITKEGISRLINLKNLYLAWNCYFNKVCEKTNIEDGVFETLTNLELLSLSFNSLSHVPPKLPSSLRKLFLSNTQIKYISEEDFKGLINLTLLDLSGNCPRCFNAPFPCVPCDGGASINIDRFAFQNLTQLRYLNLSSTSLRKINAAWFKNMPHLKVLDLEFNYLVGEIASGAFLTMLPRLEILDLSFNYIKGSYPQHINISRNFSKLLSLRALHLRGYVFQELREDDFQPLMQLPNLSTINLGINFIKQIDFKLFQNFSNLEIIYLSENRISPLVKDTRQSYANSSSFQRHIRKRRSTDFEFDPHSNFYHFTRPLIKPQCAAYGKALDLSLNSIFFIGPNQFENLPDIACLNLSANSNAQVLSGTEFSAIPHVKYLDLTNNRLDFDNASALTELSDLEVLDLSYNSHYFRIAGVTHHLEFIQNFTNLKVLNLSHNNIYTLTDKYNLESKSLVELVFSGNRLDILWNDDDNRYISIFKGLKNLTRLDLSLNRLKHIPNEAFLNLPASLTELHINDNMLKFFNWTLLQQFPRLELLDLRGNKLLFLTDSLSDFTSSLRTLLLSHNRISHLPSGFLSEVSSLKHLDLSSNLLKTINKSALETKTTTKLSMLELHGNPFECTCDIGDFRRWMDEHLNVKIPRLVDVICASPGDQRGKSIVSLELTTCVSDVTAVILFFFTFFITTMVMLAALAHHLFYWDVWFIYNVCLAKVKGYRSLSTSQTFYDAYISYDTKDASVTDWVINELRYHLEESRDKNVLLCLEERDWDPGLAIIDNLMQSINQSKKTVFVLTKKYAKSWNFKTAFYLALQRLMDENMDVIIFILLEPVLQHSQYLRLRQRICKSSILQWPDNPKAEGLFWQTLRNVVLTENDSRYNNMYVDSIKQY
Sequence of TLR7 (Q9NYK1 27-1049): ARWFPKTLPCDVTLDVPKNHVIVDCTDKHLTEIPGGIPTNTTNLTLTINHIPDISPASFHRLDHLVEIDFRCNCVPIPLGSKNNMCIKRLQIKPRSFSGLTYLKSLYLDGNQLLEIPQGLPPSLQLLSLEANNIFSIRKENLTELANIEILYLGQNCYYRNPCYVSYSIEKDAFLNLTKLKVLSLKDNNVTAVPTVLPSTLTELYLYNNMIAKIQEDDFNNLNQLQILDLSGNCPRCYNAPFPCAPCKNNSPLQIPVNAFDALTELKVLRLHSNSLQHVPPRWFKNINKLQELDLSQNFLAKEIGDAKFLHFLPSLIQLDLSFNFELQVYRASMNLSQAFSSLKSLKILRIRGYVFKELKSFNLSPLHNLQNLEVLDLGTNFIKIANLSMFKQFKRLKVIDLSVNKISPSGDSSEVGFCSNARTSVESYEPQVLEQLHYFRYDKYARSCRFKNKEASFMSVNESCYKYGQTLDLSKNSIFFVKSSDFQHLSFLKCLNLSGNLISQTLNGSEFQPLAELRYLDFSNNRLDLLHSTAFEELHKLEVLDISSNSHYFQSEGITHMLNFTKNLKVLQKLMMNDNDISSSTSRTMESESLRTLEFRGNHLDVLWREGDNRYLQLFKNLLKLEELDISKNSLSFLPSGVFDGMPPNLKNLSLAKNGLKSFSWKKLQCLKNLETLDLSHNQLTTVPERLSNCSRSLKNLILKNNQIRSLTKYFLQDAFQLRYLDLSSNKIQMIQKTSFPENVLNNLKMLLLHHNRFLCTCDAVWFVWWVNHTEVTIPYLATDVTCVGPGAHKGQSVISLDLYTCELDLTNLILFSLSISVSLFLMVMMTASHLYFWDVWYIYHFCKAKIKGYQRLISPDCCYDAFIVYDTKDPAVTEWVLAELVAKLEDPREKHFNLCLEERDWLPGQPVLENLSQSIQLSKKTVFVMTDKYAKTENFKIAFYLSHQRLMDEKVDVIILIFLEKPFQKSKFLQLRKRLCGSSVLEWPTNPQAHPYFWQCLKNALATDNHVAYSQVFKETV

Consider `Cc1c(C2CC23CCNCC3)sc2[nH]c(-c3cc(C)c4ncnn4c3)c(C(C)C)c12` (centres unmarked) [Example 209], for which the concentration for a half-maximal effect (EC50) at TLR8 (setting [1]) amounted to 10.7 nM; at TLR7 (setting [2]), 0.94 nM.
As to `Cc1c(CC2CCN(CC(N)=O)CC2)sc2[nH]c(-c3cc(C)c4ncnn4c3)c(C(C)C)c12` [Example 210], the EC50 at TLR8 (setting [1]) was found to be 10 nM; on TLR7 (setting [2]) it was 2.32 nM.
For `Cc1c(C2CC23CCN(CC(N)=O)CC3)sc2[nH]c(-c3cc(C)c4ncnn4c3)c(C(C)C)c12` (centres unmarked) [Example 211], in that order: 30.9 nM and 5.08 nM.
For the compound `Cc1c(-c2[nH]c3sc(C45CCN(CCS(C)(=O)=O)CC4C5)c(C)c3c2C(C)C)cn2ncnc2c1C` (centres unmarked) [Example 217], the results for the EC50 on TLR8 (setting [1]) and on TLR7 (setting [2]) were 78.6 nM and 1.27 nM, respectively.
For the compound `Cc1c(-c2[nH]c3sc([C@@H]4C[C@@H]5C[C@H]4CN5CCS(C)(=O)=O)cc3c2C(C)C)cn2ncnc2c1C` [Example 218], the figures for the half-maximal effective concentration (EC50) at TLR8 (setting [1]) and at TLR7 (setting [2]) were 0.88 nM and 0.45 nM, respectively.
The like results for `Cc1c(-c2[nH]c3sc(C4CCNCC4)cc3c2C(C)C)cn2ncnc2c1C` [Example 219] were, in that order, 3.01 nM and 0.26 nM.
On to `Cc1c(-c2[nH]c3sc([C@@H]4C[C@@H]5C[C@H]4CN5)cc3c2C(C)C)cn2ncnc2c1C` [Example 220], for which the figures for the EC50 on TLR8 (setting [1]) and on TLR7 (setting [2]) were 0.64 nM and 0.11 nM, respectively.
For the compound `Cc1c(-c2[nH]c3sc(-c4cccc(C5CCNCC5)c4)c(C)c3c2C(C)C)cn2ncnc2c1C` [Example 222], the EC50 was 79.3 nM at TLR8 (setting [1]) and 8.47 nM on TLR7 (setting [2]).
Turning to `Cc1c(-c2[nH]c3sc(-c4cccc(C5CCN(CC(N)=O)CC5)c4)c(C)c3c2C(C)C)cn2ncnc2c1C` [Example 223], the concentration giving a half-maximal response (EC50) on TLR8 (setting [1]) came to 66.5 nM; on TLR7 (setting [2]), 15.5 nM.
Take `Cc1c(-c2[nH]c3sc(-c4cnc(C5CCNCC5)nc4)c(C)c3c2C(C)C)cn2ncnc2c1C` [Example 224]: the results for the concentration giving a half-maximal response (EC50) on TLR8 (setting [1]) and on TLR7 (setting [2]) were 3.68 nM and 1.24 nM, respectively.
Take `Cc1c(-c2[nH]c3sc(C4C[C@H]5CC[C@@H]4N5)c(C)c3c2C(C)C)cn2ncnc2c1C` (some centres unmarked) [Example 225]: the EC50 at TLR8 (TLR-8 EC50, human PBMCs) was determined as 6.12 nM; on TLR7 (TLR-7 EC50, human PBMCs), 0.47 nM.
With `Cc1c(-c2[nH]c3sc(-c4cnc(C5CCN(CC(N)=O)CC5)nc4)c(C)c3c2C(C)C)cn2ncnc2c1C` [Example 226], the half-maximal effective concentration (EC50) came to 1 nM on TLR8 (setting [1]) and 4.14 nM on TLR7 (setting [2]).
With `Cc1c(-c2[nH]c3sc(C4C[C@H]5CC[C@@H]4N5CC(N)=O)c(C)c3c2C(C)C)cn2ncnc2c1C` (some centres unmarked) [Example 227], the half-maximal effective concentration (EC50) on TLR8 (TLR-8 EC50, human PBMCs) turned out to be 15.5 nM; at TLR7 (TLR-7 EC50, human PBMCs), 5.07 nM.
Regarding `Cc1c(-c2[nH]c3sc(C4CCC45CNC5)c(C)c3c2C(C)C)cn2ncnc2c1C` (centres unmarked) [Example 228, 5-(7,8-dimethyl-[1,2,4]triazolo[1,5-a]pyridin-6-yl)-4-isopropyl-3-methyl-2-(2-azaspiro[3.3]heptan-5-yl)-6H-thieno[2,3-b]pyrrole], the 50% effective concentration (EC50) on TLR8 (setting [1]) was found to be 76.2 nM; at TLR7 (setting [2]), 8.77 nM.
In the case of `Cc1c(C2CCN(CC(N)=O)CC2)sc2[nH]c(-c3ccc(C#N)c4ncccc34)c(C(C)C)c12` [Example 230], the results for the concentration giving a half-maximal response (EC50) at TLR8 (setting [1]) and at TLR7 (setting [2]) were 14 nM and 0.81 nM, respectively.
The like results for `Cc1c(C2CCN(CC(N)=O)CC2)sc2[nH]c(C3=NC(C)c4ncccc43)c(C(C)C)c12` (centres unmarked) [Example 232] were, in that order, 18.8 nM and 0.83 nM.
For `Cc1cc(-c2[nH]c3sc(C4CCN(CC(N)=O)CC4)c(C)c3c2C(C)C)cn(C)c1=O` [Example 234], the EC50 stood at 10.6 nM at TLR8 (setting [1]) and 4.25 nM at TLR7 (setting [2]).
Take `Cc1cc2ncnn2cc1-c1[nH]c2sc(C3CCN(CC(N)=O)CC3)c(C)c2c1C(C)C` [Example 235]: the results for the EC50 on TLR8 (setting [1]) and on TLR7 (setting [2]) were 48.8 nM and 10.1 nM, respectively.
The like results for `Cc1c(C2CCN(CC(N)=O)CC2)sc2[nH]c(-c3cc(C)c4nnnn4c3)c(C(C)C)c12` [Example 236] were, in that order, 21.8 nM and 1.94 nM.
On to `Cc1c(C2CCN(CC(N)=O)CC2)sc2[nH]c(-c3cc(C)c4nccn4c3)c(C(C)C)c12` [Example 237], for which the 50% effective concentration (EC50) on TLR8 (setting [1]) was found to be 69.3 nM; on TLR7 (setting [2]) it was 0.29 nM.
For `COc1cc(-c2[nH]c3sc(C4CCNCC4)c(C)c3c2C(C)C)cn2ncnc12` [Example 246, 4-isopropyl-5-(8-methoxy-[1,2,4]triazolo[1,5-a]pyridin-6-yl)-3-methyl-2-(piperidin-4-yl)-6H-thieno[2,3-b]pyrrole], in that order: 8.94 nM and 0.09 nM.
For `Cc1c(C2CCNCC2)sc2[nH]c(-c3ccc(C#N)c4ncccc34)c(C(C)C)c12` [Example 247], in that order: 13.5 nM and 0.2 nM.
Regarding `Cc1c(C2CCNCC2)sc2[nH]c(-c3ccc(C#N)c4nccnc34)c(C(C)C)c12` [Example 248], the EC50 at TLR8 (setting [1]) is 106 nM; on TLR7 (setting [2]), 11.5 nM.
On to `Cc1c(C2CCNCC2)sc2[nH]c(-c3cn(C)c4ncccc34)c(C(C)C)c12` [Example 249], for which the EC50 was determined as 3.02 nM at TLR8 (setting [1]) and 0.32 nM on TLR7 (setting [2]).
As to `Cc1cc(-c2[nH]c3sc(C4CCNCC4)c(C)c3c2C(C)C)cn(C)c1=O` [Example 250], the EC50 on TLR8 (setting [1]) was determined as 3.59 nM; at TLR7 (setting [2]), 0.34 nM.
On to `Cc1c(C2CCNCC2)sc2[nH]c(-c3cc(C)c4nnnn4c3)c(C(C)C)c12` [Example 251], for which the values for the 50% effective concentration (EC50) on TLR8 (setting [1]) and on TLR7 (setting [2]) were 8.16 nM and 0.13 nM, respectively.
The like results for `Cc1c(C2CCNCC2)sc2[nH]c(-c3cc(C)c4nccn4c3)c(C(C)C)c12` [Example 252] were, in that order, 34.2 nM and 0.07 nM.
For `Cc1c(-c2[nH]c3sc(C4C[C@@H]5C[C@H]4CC5NC4COC4)c(C)c3c2C(C)C)cn2ncnc2c1C` (stereo partly drawn) [Example 253, N-((1S,4S)-5-(5-(7,8-dimethyl-[1,2,4]triazolo[1,5-a]pyridin-6-yl)-4-isopropyl-3-methyl-6H-thieno[2,3-b]pyrrol-2-yl)bicyclo[2.2.1]heptan-2-yl)oxetan-3-amine], in that order: 1.06 nM and 0.1 nM.
Consider `Cc1c(-c2[nH]c3sc(C4C[C@@H]5C[C@H]4CC5N4CC5(C4)CS(=O)(=O)C5)c(C)c3c2C(C)C)cn2ncnc2c1C` (some centres unmarked) [Example 254], for which the values for the 50% effective concentration (EC50) on TLR8 (setting [1]) and on TLR7 (setting [2]) were 3.64 nM and 0.38 nM, respectively.
Regarding `Cc1c(-c2[nH]c3sc(C4C[C@@H]5C[C@H]4CC5N4CCS(=N)(=O)CC4)c(C)c3c2C(C)C)cn2ncnc2c1C` (some centres unmarked) [Example 255], the concentration for a half-maximal effect (EC50) worked out at 21.4 nM on TLR8 (setting [1]) and 1.22 nM on TLR7 (setting [2]).
For the compound `Cc1c(-c2[nH]c3sc(C4C[C@@H]5C[C@H]4CC5N4CCS(=O)(=O)CC4)c(C)c3c2C(C)C)cn2ncnc2c1C` (some centres unmarked) [Example 256], the half-maximal effective concentration (EC50) at TLR8 (setting [1]) was 29.2 nM; at TLR7 (setting [2]), 2.31 nM.
For `Cc1c(-c2[nH]c3sc(C4C[C@@H]5C[C@H]4CC5N4CCNC(=O)C4)c(C)c3c2C(C)C)cn2ncnc2c1C` (some centres unmarked) [Example 257], in that order: 7.58 nM and 1.29 nM.
Consider `Cc1cc(-c2[nH]c3sc(C4CCNCC4)c(CO)c3c2C(C)C)cn2ncnc12` [Example 258, (4-isopropyl-5-(8-methyl-[1,2,4]triazolo[1,5-a]pyridin-6-yl)-2-(piperidin-4-yl)-6H-thieno[2,3-b]pyrrol-3-yl)methanol], for which the figures for the EC50 on TLR8 (setting [1]) and at TLR7 (setting [2]) were 13.6 nM and 0.89 nM, respectively.
The like results for `COCc1c(C2CCNCC2)sc2[nH]c(-c3cc(C)c4ncnn4c3)c(C(C)C)c12` [Example 259, 4-isopropyl-3-(methoxymethyl)-5-(8-methyl-[1,2,4]triazolo[1,5-a]pyridin-6-yl)-2-(piperidin-4-yl)-6H-thieno[2,3-b]pyrrole] were, in that order, 3.59 nM and 0.15 nM.
For the compound `Cc1cc(-c2[nH]c3sc(C4CCN(C(=O)[C@H]5COCCN5)CC4)c(CO)c3c2C(C)C)cn2ncnc12` [Example 260, (R)-(4-(3-(hydroxymethyl)-4-isopropyl-5-(8-methyl-[1,2,4]triazolo[1,5-a]pyridin-6-yl)-6H-thieno[2,3-b]pyrrol-2-yl)piperidin-1-yl)(morpholin-3-yl)methanone], the results for the EC50 on TLR8 (setting [1]) and on TLR7 (setting [2]) were 27.3 nM and 0.31 nM, respectively.
Take `Cc1c(-c2[nH]c3sc([C@@H]4C[C@@H]5C[C@H]4CN5CC(=O)O)c(C)c3c2C(C)C)cn2ncnc2c1C` [Example 264, 2-((1S,4R,5R)-5-(5-(7,8-dimethyl-[1,2,4]triazolo[1,5-a]pyridin-6-yl)-4 isopropyl-3-methyl-6H-thieno[2,3-b]pyrrol-2-yl)-2-azabicyclo[2.2.1]heptan-2-yl)acetic acid]: the results for the half-maximal effective concentration (EC50) at TLR8 (setting [1]) and on TLR7 (setting [2]) were 13.7 nM and 2.52 nM, respectively.
With `Cc1c(-c2[nH]c3sc([C@@H]4C[C@@H]5C[C@H]4CN5CC(=O)N4CC(O)C4)c(C)c3c2C(C)C)cn2ncnc2c1C` [Example 265, 2-((1S,4R,5R)-5-(5-(7,8-dimethyl-[1,2,4]triazolo[1,5-a]pyridin-6-yl)-4 isopropyl-3-methyl-6H-thieno[2,3-b]pyrrol-2-yl)-2-azabicyclo[2.2.1]heptan-2-yl)-1-(3-hydroxyazetidin-1-yl)ethan-1-one], the concentration for a half-maximal effect (EC50) on TLR8 (setting [1]) amounted to 0.83 nM; on TLR7 (setting [2]), 0.97 nM.
The like results for `Cc1c(-c2[nH]c3sc([C@@H]4C[C@@H]5C[C@H]4CN5CC(=O)N(C)CCO)c(C)c3c2C(C)C)cn2ncnc2c1C` [Example 266] were, in that order, 0.33 nM and 1.27 nM.
The like results for `Cc1c(-c2[nH]c3sc([C@@H]4C[C@@H]5C[C@H]4CN5CC(=O)NCCO)c(C)c3c2C(C)C)cn2ncnc2c1C` [Example 267] were, in that order, 0.15 nM and 0.47 nM.
As to `Cc1c(-c2[nH]c3sc(C4C[C@@H]5C[C@H]4CN5CC(=O)N4CCC4)c(C)c3c2C(C)C)cn2ncnc2c1C` (some centres unmarked) [Example 268], the half-maximal effective concentration (EC50) at TLR8 (setting [1]) is 0.24 nM; at TLR7 (setting [2]) it was less than 0.05 nM.

In general, EC50 refers to the concentration needed to bring the measured effect to its halfway point.
